In the assay the test system is perceived sweetness intensity. The assay can be described thus: Strawberry consumer panel; initial multiple regression of volatiles against perceived sweetness intensity independent of glucose, fructose or sucrose (Table 5). The format is in vivo, human. To be noted: for relation to sweetness intensity independent of sugars: initial step-wise multiple regression; for FRUCTOSE t RATIO / GLUCOSE t RATIO / SUCROSE t RATIO: standard least squares; for FRUCTOSE t RATIO: sweetness intensity independent of fructose; for GLUCOSE t RATIO: sweetness intensity independent of glucose; for SUCROSE t RATIO: sweetness intensity independent of sucrose. As for the experimental part:
Step-wise multiple regressions of all volatile compounds against perceived intensity of sweetness is performed independent of either glucose, fructose, or sucrose concentration, separately (Table 5).
At least 100 grams or seven berries of each sample were removed from 4° C. dark overnight storage prior to volatile collection. Samples were homogenized in a blender prior to splitting into three 15 gram replicates for immediate capturing of volatile emission and remainder of sample frozen in N2 (I) and stored at −80° C. for later sugar and acid quantification.
Oven temperatures programmed from 40° C. (0.5 min hold) at 5° C. min^−1 to 250° C. (4 min hold). Signals captured with a flame ionization detector (FID) at 280° C. Peaks from FID signal were integrated manually with Chemstation B.04.01 software (Agilent Technologies, Santa Clara, Calif.). Volatile emission (ng gFW^−1 h^−1) calculated based on individual peak area relative to sample elution standard peak area.
All consumer panels were approved by the University of Florida Institutional Review Board. […] Ages of panelist ranged from 18 to 71, with a median age of 24. Panelists self-classified themselves as 98 White or Caucasian, 11 Black or African-American, 1 Native American, Alaska Native or Aleutian, 41 Asian/Pacific Islander, and 15 Other. […] Fresh, fully-ripe strawberry fruit was removed from overnight 4° C. dark storage and allowed to warm to room temperature prior to sensory analysis. Each panelist was given one to two whole strawberries for evaluation, depending on cultivar availability. Panelist took a bite of each sample, chewed, and swallowed it. Ratings for overall liking and liking for texture were scaled on hedonic general labeled magnitude scale (gLMS) in the context of all pleasure/displeasure experiences. […] Scales were employed to mediate valid comparisons across subjects and sessions.
For the first analysis, individual volatile compound concentrations were regressed using the “enter” method in SPSS Statistics (IBM Corp, Armonk, N.Y., USA).

In the case of `CCCCCCCCC1CCC(=O)O1` (stereo not shown) [2305-05-7, 5-octyldihydro-2(3H)-furanone], the “relation to sweetness intensity independent of sugars” value (shortened to “relation”) is listed as “enhance sweetness intensity”.
`CCCCC/C=C\C=O` [20664-46-4]: the “FRUCTOSE t RATIO” value is recorded as −0.17, the “GLUCOSE t RATIO” value is −0.395 and the “SUCROSE t RATIO” value amounted to 1.383.
As to `CCCCOC(=O)CCC` [109-21-7], the “FRUCTOSE t RATIO” value came out at 2.181, the “GLUCOSE t RATIO” value was 1.961 and the “SUCROSE t RATIO” value is listed as 1.65.
On the same counts, the results for `CCCCCOC(C)=O` [628-63-7] are 0.882, 0.749 and 0.427.
For `CC(=O)CC(C)C` [108-10-1, 4-Methyl-2-pentanone], the “relation” value is “negatively related to sweetness”.
`C=CC(C)(O)CC/C=C(\C)CCC=C(C)C` (stereo not shown) [40716-66-3]: the “FRUCTOSE t RATIO” value was 1.521, the “GLUCOSE t RATIO” value is 1.202 and the “SUCROSE t RATIO” value is recorded as 1.
Consider `CC/C=C\C=O` [1576-86-9], for which the “FRUCTOSE t RATIO” value stood at 4.16, the “GLUCOSE t RATIO” value came to 3.915 and the “SUCROSE t RATIO” value stood at 0.935.
Taken in the same sequence, the figures for `CCC/C=C/CO` [928-95-0] were −1.842, −1.521 and −0.516.
On the same counts, the results for `CCCCCCCCOC(=O)CCCCC` [4887-30-3] are 0.392, 0.254 and 2.71.
On the same counts, the results for `CCCCCC(=O)OCC` [123-66-0] are 0.066, −0.001 and 1.064.
Consider `CCCCCOC(=O)CCC` [540-18-1, pentyl butyrate], for which the “relation” value is “enhance sweetness intensity”.
Consider `C=C[C@]1(C)CC[C@H](C(C)(C)O)O1` [5989-33-3], for which the “FRUCTOSE t RATIO” value is on record as 1.869, the “GLUCOSE t RATIO” value is recorded as 1.561 and the “SUCROSE t RATIO” value amounted to 1.953.
With `CCCC(=O)OC(C)CCC` (stereo not shown) [60415-61-4, 2-pentanyl butyrate], the “relation” value is “enhance sweetness intensity”.
`CC1(C)C2CC=C(C=O)C1C2` (stereo not shown) [564-94-3]: the “FRUCTOSE t RATIO” value is reported as 2.588, the “GLUCOSE t RATIO” value turned out to be 2.455 and the “SUCROSE t RATIO” value is −1.322.
For `CCOC(=O)CC` [105-37-3], the “FRUCTOSE t RATIO” value is −0.623, the “GLUCOSE t RATIO” value was −0.674 and the “SUCROSE t RATIO” value turned out to be 1.964.
With `CCCCCCCC(=O)OCC` [106-32-1, ethyl octanoate], the “relation” value is on record as “negatively related to sweetness”.
Regarding `CSC(C)=O` [1534-08-3], the “FRUCTOSE t RATIO” value stood at 0.488, the “GLUCOSE t RATIO” value is recorded as 0.429 and the “SUCROSE t RATIO” value is on record as 1.035.
Taken in the same sequence, the figures for `CC(=O)OCc1ccccc1` [140-11-4] were −0.361, −0.513 and −1.357.
Taken in the same sequence, the figures for `CCCCCCCCOC(=O)CC(C)C` [7786-58-5] were 0.362, 0.227 and 2.027.
In the case of `CCCCCCCCCOC(=O)C(C)C` [10522-34-6], the “FRUCTOSE t RATIO” value worked out at 0.536, the “GLUCOSE t RATIO” value is recorded as 0.288 and the “SUCROSE t RATIO” value came to 2.049.
On the same counts, the results for `CCCCCC(=O)OC(C)C` [2311-46-8] are 0.238, −0.058 and 2.211.
On the same counts, the results for `CCCCC(CC)COC(C)=O` (stereo not shown) [103-09-3] are 0.172, 0.21 and −1.053.
`CCCCCCCCOC(C)=O` [112-14-1]: the “FRUCTOSE t RATIO” value is on record as 0.413, the “GLUCOSE t RATIO” value is 0.284 and the “SUCROSE t RATIO” value turned out to be 2.292.
Taken in the same sequence, the figures for `CCCCCCCCOC(=O)C(C)CC` (stereo not shown) [29811-50-5] were 0.016, −0.098 and 0.358.
On the same counts, the results for `Cc1cc(C(C)(C)C)c(O)c(C(C)(C)C)c1` [128-37-0] are −0.856, −1.17 and 0.482.
On the same counts, the results for `CCCCCC(CC)CC` [5881-17-4] are 2.894, 2.662 and 0.608.
Consider `C/C=C/C(=O)OC` [623-43-8], for which the “FRUCTOSE t RATIO” value came out at 0.248, the “GLUCOSE t RATIO” value is 0.54 and the “SUCROSE t RATIO” value is reported as −1.396.
On the same counts, the results for `CCCCCCC1CCC(=O)O1` (stereo not shown) [706-14-9] are 1.247, 0.879 and 1.65.
On the same counts, the results for `CCOC(=O)C(C)CC` (stereo not shown) [7452-79-1] are 1.959, 1.993 and −0.785.
Taken in the same sequence, the figures for `CCCCCCCC=O` [124-13-0] were 0.871, 0.685 and 0.169.
On to `CCCCCCCCOC(=O)CCC` [110-39-4], for which the “FRUCTOSE t RATIO” value was 0.96, the “GLUCOSE t RATIO” value worked out at 0.814 and the “SUCROSE t RATIO” value is on record as 2.645.
Taken in the same sequence, the figures for `CCCOC(=O)CCC` [105-66-8] were 0.88, 0.638 and 2.421.
For the molecule `CCCCCO` [71-41-0], the “FRUCTOSE t RATIO” value was determined as 0.448, the “GLUCOSE t RATIO” value amounted to 0.296 and the “SUCROSE t RATIO” value was found to be 1.938.
On the same counts, the results for `CCCCCCCCC=O` [124-19-6] are 3.696, 3.402 and 0.226.
As for `CCCCOC(=O)CC(C)C` [109-19-3], the “FRUCTOSE t RATIO” value turned out to be 2.005, the “GLUCOSE t RATIO” value is 1.954 and the “SUCROSE t RATIO” value is 1.662.
Turning to `CCCCC(C)=O` [591-78-6], the “FRUCTOSE t RATIO” value is listed as 2.807, the “GLUCOSE t RATIO” value was 2.788 and the “SUCROSE t RATIO” value was determined as 0.767.
On the same counts, the results for `CCC(=O)CC` [96-22-0] are 1.82, 1.576 and 0.912.
Taken in the same sequence, the figures for `CCC/C=C/COC(C)=O` [2497-18-9] were −0.313, −0.331 and −0.056.
Turning to `CCCCCCOC(C)=O` [hexyl acetate], the “relation” value was “enhance sweetness intensity”.
For the molecule `C=C(C)C1CC=C(COC(C)=O)CC1` (stereo not shown) [15111-96-3], the “FRUCTOSE t RATIO” value was found to be 0.23, the “GLUCOSE t RATIO” value worked out at 0.192 and the “SUCROSE t RATIO” value is on record as 0.927.
As for `COC(=O)c1ccccc1N` [134-20-3], the “FRUCTOSE t RATIO” value is −0.009, the “GLUCOSE t RATIO” value turned out to be 0.2 and the “SUCROSE t RATIO” value came out at 1.386.
As for `CCCCC(CC)CO` (stereo not shown) [104-76-7], the “FRUCTOSE t RATIO” value stood at 1.189, the “GLUCOSE t RATIO” value is recorded as 0.982 and the “SUCROSE t RATIO” value is 2.046.
Taken in the same sequence, the figures for `CCCCC(=O)OCC` [539-82-2] were −0.48, −0.802 and 2.273.
On the same counts, the results for `CC/C=C/C=O` [1576-87-0] are 4.566, 4.301 and 1.024.
On the same counts, the results for `C=CC(O)CC` (stereo not shown) [616-25-1] are 1.773, 1.628 and 0.795.
On to `CCCC(=O)CC` [589-38-8], for which the “FRUCTOSE t RATIO” value is −0.217, the “GLUCOSE t RATIO” value is reported as −0.427 and the “SUCROSE t RATIO” value came out at 0.592.
For the molecule `CCCCCCOC(=O)CCC` [2639-63-6, hexyl butyrate], the “relation” value is “enhance sweetness intensity”.
As to `CCC(O)C(=O)OC` (stereo not shown) [29674-47-3], the “FRUCTOSE t RATIO” value worked out at 1.339, the “GLUCOSE t RATIO” value was determined as 1.362 and the “SUCROSE t RATIO” value is on record as 0.035.
On the same counts, the results for `CCCCC(=O)C(C)=O` [96-04-8] are 0.142, 0.002 and −0.646.
On the same counts, the results for `CCCOC(C)=O` [109-60-4] are −0.491, −0.454 and −0.224.
Taken in the same sequence, the figures for `CCCCCCC=O` [111-71-7] were 2.599, 2.283 and 1.342.
